In ChEMBL document CHEMBL3390835, “New insight into the mode of action of vancomycin dimers in bacterial cell wall synthesis” (Medchemcomm, 2011) one finds MIC, IC50 and inhibition data, which are given here for six compounds.

For orientation: MIC means the least concentration at which growth counts as inhibited. The low end stands for a more susceptible organism, the high end for a less susceptible organism. As usually defined, the IC50 is the concentration at which inhibition is half-maximal.

In assay [1] the test system is Staphylococcus aureus. Put plainly: Antibacterial activity against vancomycin-susceptible Staphylococcus aureus RN4220. The class given is functional.
Assay [2] has as its system Enterococcus faecium. Put plainly: Antibacterial activity against vancomycin A-resistant Enterococcus faecium SR7940. The class given is functional.
The test system of assay [3] is Enterococcus faecium. Put plainly: Antibacterial activity against vancomycin B-resistant Enterococcus faecium SR23598. It counts as functional.
Assay [4] has as its system Staphylococcus aureus. Put plainly: Inhibition of cell wall synthesis in vancomycin-susceptible Staphylococcus aureus assessed as reduction of lipid intermediate synthesis using UDP-Mur-NAc-pentapeptide (L-Ala-gamma-D-Glu-L-Lys-D-Ala-D-Ala), UDPGlcNAc and [14C] glycine as precursors. The class given is functional, organism-based.
In assay [5] the test system is Staphylococcus aureus. Put plainly: Inhibition of cell wall synthesis in vancomycin-susceptible Staphylococcus aureus assessed as reduction of peptidoglycan synthesis using UDP-Mur-NAc-pentapeptide (L-Ala-gamma-D-Glu-L-Lys-D-Ala-D-Ala), UDPGlcNAc and [14C] glycine as precursors. The class given is functional, organism-based.
For assay [6], the system named is Staphylococcus aureus. Put plainly: Inhibition of cell wall synthesis in vancomycin-resistant Staphylococcus aureus assessed as reduction of lipid intermediate synthesis using UDP-Mur-NAc-pentapeptide (L-Ala-gamma-D-Glu-L-Lys-D-Ala-D-Lactate), UDPGlcNAc and [14C] glycine as precursors. It counts as functional, organism-based.
For assay [7], the system named is Staphylococcus aureus. Put plainly: Inhibition of cell wall synthesis in vancomycin-resistant Staphylococcus aureus assessed as reduction of peptidoglycan synthesis using UDP-Mur-NAc-pentapeptide (L-Ala-gamma-D-Glu-L-Lys-D-Ala-D-Lactate), UDPGlcNAc and [14C] glycine as precursors. It counts as functional, organism-based.
Assay [8] deals with Enterococcus faecium. Put plainly: Inhibition of protein synthesis in vancomycin B-resistant Enterococcus faecium SRM1101 assessed as [14C]leucine incorporation measured after 15 mins cultivation. The class given is functional, organism-based.
Assay [9] relates to Enterococcus faecium. Put plainly: Inhibition of DNA synthesis in vancomycin B-resistant Enterococcus faecium SRM1101 assessed as [14C]thymidine incorporation measured after 15 mins cultivation. It counts as functional, organism-based. (Dividing cells build labelled thymidine or BrdU into new DNA.)
Assay [10] deals with Enterococcus faecium. Put plainly: Inhibition of RNA synthesis in vancomycin B-resistant Enterococcus faecium SRM1101 assessed as [3H]uracil incorporation measured after 15 mins cultivation. The class given is functional, organism-based.
The test system of assay [11] is Enterococcus faecium. Put plainly: Inhibition of fatty acid synthesis in vancomycin B-resistant Enterococcus faecium SRM1101 assessed as [14C]acetic acid incorporation measured after 15 mins cultivation. It counts as functional, organism-based.
Assay [12] relates to Enterococcus faecium. Put plainly: Inhibition of peptidoglycan synthesis in vancomycin B-resistant Enterococcus faecium SRM1101 assessed as [3H]N-acetyl-D-glucosamine incorporation measured after 15 mins cultivation. The class given is functional, organism-based.

In brackets after ≈: the same amount, converted by molar mass. Activity calls are given as the source filed them. No cut-off for these calls is given here. Bounds are passed on as bounds.

For `CN[C@H](CC(C)C)C(=O)N[C@H]1C(=O)N[C@@H](CC(N)=O)C(=O)N[C@H]2C(=O)N[C@H]3C(=O)N[C@H](C(=O)N[C@H](C(=O)O)c4cc(O)cc(O)c4-c4cc3ccc4O)[C@H](O)c3ccc(c(Cl)c3)Oc3cc2cc(c3O[C@@H]2O[C@H](CO)[C@@H](O)[C@H](O)[C@H]2O[C@H]2C[C@](C)(NCc3c4oc5c(CN[C@@]6(C)C[C@H](O[C@H]7[C@H](Oc8c9cc%10cc8Oc8ccc(cc8Cl)[C@@H](O)[C@@H](NC(=O)[C@@H](CC(C)C)NC)C(=O)N[C@@H](CC(N)=O)C(=O)N[C@H]%10C(=O)N[C@H]8C(=O)N[C@H](C(=O)N[C@H](C(=O)O)c%10cc(O)cc(O)c%10-c%10cc8ccc%10O)[C@H](O)c8ccc(c(Cl)c8)O9)O[C@H](CO)[C@@H](O)[C@@H]7O)O[C@@H](C)[C@H]6O)cccc5nc-4cc(N)c3=O)[C@H](O)[C@H](C)O2)Oc2ccc(cc2Cl)[C@H]1O`, the MIC came to 2 µg/mL (≈ 0.638 µM) with Staphylococcus aureus [1], 8 µg/mL (≈ 2.55 µM) in the assay on Enterococcus faecium [2] and 1 µg/mL (≈ 0.319 µM) in the assay on Enterococcus faecium [3]. Moreover, the IC50 came to 98 µg/mL (≈ 31.3 µM) in the assay on Staphylococcus aureus [4], 2.2 µg/mL (≈ 0.702 µM) in the assay with Staphylococcus aureus [5], 700 µg/mL (≈ 223 µM) in the assay on Staphylococcus aureus [6] and 31 µg/mL (≈ 9.89 µM) with Staphylococcus aureus [7].

With `CN[C@H](CC(C)C)C(=O)N[C@H]1C(=O)N[C@@H](CC(N)=O)C(=O)N[C@H]2C(=O)N[C@H]3C(=O)N[C@H](C(=O)N[C@H](C(=O)O)c4cc(O)cc(O)c4-c4cc3ccc4O)[C@H](O)c3ccc(c(Cl)c3)Oc3cc2cc(c3O[C@@H]2O[C@H](CO)[C@@H](O)[C@H](O)[C@H]2O[C@H]2C[C@](C)(N)[C@H](O)[C@H](C)O2)Oc2ccc(cc2Cl)[C@H]1O`, the inhibition result in the assay on Enterococcus faecium [8], in the assay on Enterococcus faecium [9], in the assay on Enterococcus faecium [10], with Enterococcus faecium [11] and with Enterococcus faecium [12] was “inactive” each time.

For `Cc1c2oc3c(C)ccc(C(=O)Nc4cccc(CN[C@@]5(C)C[C@H](O[C@H]6[C@H](Oc7c8cc9cc7Oc7ccc(cc7Cl)[C@@H](O)[C@@H](N)C(=O)N[C@@H](CC(N)=O)C(=O)N[C@H]9C(=O)N[C@H]7C(=O)N[C@H](C(=O)N[C@H](C(=O)O)c9cc(O)cc(O)c9-c9cc7ccc9O)[C@H](O)c7ccc(c(Cl)c7)O8)O[C@H](CO)[C@@H](O)[C@@H]6O)O[C@@H](C)[C@H]5O)c4)c3nc-2c(C(=O)Nc2cccc(CN[C@@]3(C)C[C@H](O[C@H]4[C@H](Oc5c6cc7cc5Oc5ccc(cc5Cl)[C@@H](O)[C@@H](N)C(=O)N[C@@H](CC(N)=O)C(=O)N[C@H]7C(=O)N[C@H]5C(=O)N[C@H](C(=O)N[C@H](C(=O)O)c7cc(O)cc(O)c7-c7cc5ccc7O)[C@H](O)c5ccc(c(Cl)c5)O6)O[C@H](CO)[C@@H](O)[C@@H]4O)O[C@@H](C)[C@H]3O)c2)c(N)c1=O`, the MIC in the assay on Staphylococcus aureus [1] is 4 µg/mL (≈ 1.27 µM); with Enterococcus faecium [2], more than 64 µg/mL; in the assay with Enterococcus faecium [3], 32 µg/mL (≈ 10.2 µM). Besides, the IC50 worked out at 460 µg/mL (≈ 146 µM) with Staphylococcus aureus [4], 20 µg/mL (≈ 6.36 µM) in the assay on Staphylococcus aureus [5], 530 µg/mL (≈ 168 µM) in the assay on Staphylococcus aureus [6] and 100 µg/mL (≈ 31.8 µM) in the assay on Staphylococcus aureus [7].

Turning to `CN[C@H](CC(C)C)C(=O)N[C@H]1C(=O)N[C@@H](CC(N)=O)C(=O)N[C@H]2C(=O)N[C@H]3C(=O)N[C@H](C(=O)N[C@H](C(=O)O)c4cc(O)cc(O)c4-c4cc3ccc4O)[C@H](O)c3ccc(c(Cl)c3)Oc3cc2cc(c3O[C@@H]2O[C@H](CO)[C@@H](O)[C@H](O)[C@H]2O[C@H]2C[C@](C)(NCc3cccc(NC(=O)c4ccc(C)c5oc6c(C)c(=O)c(N)c(C(=O)Nc7cccc(CN[C@@]8(C)C[C@H](O[C@H]9[C@H](Oc%10c%11cc%12cc%10Oc%10ccc(cc%10Cl)[C@@H](O)[C@@H](N)C(=O)N[C@@H](CC(N)=O)C(=O)N[C@H]%12C(=O)N[C@H]%10C(=O)N[C@H](C(=O)N[C@H](C(=O)O)c%12cc(O)cc(O)c%12-c%12cc%10ccc%12O)[C@H](O)c%10ccc(c(Cl)c%10)O%11)O[C@H](CO)[C@@H](O)[C@@H]9O)O[C@@H](C)[C@H]8O)c7)c-6nc45)c3)[C@H](O)[C@H](C)O2)Oc2ccc(cc2Cl)[C@H]1O`, the MIC against Staphylococcus aureus [1] was found to be 1 µg/mL (≈ 0.305 µM); against Enterococcus faecium [2] it was 8 µg/mL (≈ 2.44 µM); in the assay on Enterococcus faecium [3] it was 2 µg/mL (≈ 0.611 µM). Besides, the inhibition result with Enterococcus faecium [8], in the assay with Enterococcus faecium [9], with Enterococcus faecium [10], in the assay on Enterococcus faecium [11] and with Enterococcus faecium [12] was “inactive” throughout. Further, the IC50 in the assay on Staphylococcus aureus [4] came to 74 µg/mL (≈ 22.6 µM); in the assay on Staphylococcus aureus [5], 11 µg/mL (≈ 3.36 µM); in the assay on Staphylococcus aureus [6], 300 µg/mL (≈ 91.6 µM); in the assay with Staphylococcus aureus [7], 61 µg/mL (≈ 18.6 µM).

With `CN[C@H](CC(C)C)C(=O)N[C@H]1C(=O)N[C@@H](CC(N)=O)C(=O)N[C@H]2C(=O)N[C@H]3C(=O)N[C@H](C(=O)N[C@H](C(=O)NCc4cccc(NC(=O)c5c6nc7c(C(=O)Nc8cccc(CNC(=O)[C@H]9NC(=O)[C@H]%10NC(=O)[C@H](NC(=O)[C@@H]%11NC(=O)[C@H](CC(N)=O)NC(=O)[C@H](NC(=O)[C@@H](CC(C)C)NC)[C@H](O)c%12ccc(c(Cl)c%12)Oc%12cc%11cc(c%12O[C@@H]%11O[C@H](CO)[C@@H](O)[C@H](O)[C@H]%11O[C@H]%11C[C@](C)(N)[C@H](O)[C@H](C)O%11)Oc%11ccc(cc%11Cl)[C@H]%10O)c%10ccc(O)c(c%10)-c%10c(O)cc(O)cc%109)c8)ccc(C)c7oc-6c(C)c(=O)c5N)c4)c4cc(O)cc(O)c4-c4cc3ccc4O)[C@H](O)c3ccc(c(Cl)c3)Oc3cc2cc(c3O[C@@H]2O[C@H](CO)[C@@H](O)[C@H](O)[C@H]2O[C@H]2C[C@](C)(N)[C@H](O)[C@H](C)O2)Oc2ccc(cc2Cl)[C@H]1O`, the MIC against Staphylococcus aureus [1] came out at 8 µg/mL (≈ 2.35 µM); against Enterococcus faecium [2], 16 µg/mL (≈ 4.71 µM); in the assay on Enterococcus faecium [3], 16 µg/mL (≈ 4.71 µM). For the same compound, the inhibition result in the assay on Enterococcus faecium [8], in the assay on Enterococcus faecium [9], in the assay with Enterococcus faecium [10], in the assay on Enterococcus faecium [11] and in the assay on Enterococcus faecium [12] was “inactive” throughout.

For `CN[C@H](CC(C)C)C(=O)N[C@H]1C(=O)N[C@@H](CC(N)=O)C(=O)N[C@H]2C(=O)N[C@H]3C(=O)N[C@H](C(=O)N[C@H](C(=O)NCc4c5oc6c(CNC(=O)[C@H]7NC(=O)[C@H]8NC(=O)[C@H](NC(=O)[C@@H]9NC(=O)[C@H](CC(N)=O)NC(=O)[C@H](NC(=O)[C@@H](CC(C)C)NC)[C@H](O)c%10ccc(c(Cl)c%10)Oc%10cc9cc(c%10O[C@@H]9O[C@H](CO)[C@@H](O)[C@H](O)[C@H]9O[C@H]9C[C@](C)(N)[C@H](O)[C@H](C)O9)Oc9ccc(cc9Cl)[C@H]8O)c8ccc(O)c(c8)-c8c(O)cc(O)cc87)cccc6nc-5cc(N)c4=O)c4cc(O)cc(O)c4-c4cc3ccc4O)[C@H](O)c3ccc(c(Cl)c3)Oc3cc2cc(c3O[C@@H]2O[C@H](CO)[C@@H](O)[C@H](O)[C@H]2O[C@H]2C[C@](C)(N)[C@H](O)[C@H](C)O2)Oc2ccc(cc2Cl)[C@H]1O`, the MIC against Staphylococcus aureus [1] came out at 16 µg/mL (≈ 5.11 µM); against Enterococcus faecium [2], 4 µg/mL (≈ 1.28 µM); against Enterococcus faecium [3] it was 1 µg/mL (≈ 0.319 µM). Also, the IC50 in the assay with Staphylococcus aureus [4] is 64 µg/mL (≈ 20.4 µM); in the assay with Staphylococcus aureus [5], 1.2 µg/mL (≈ 0.383 µM); with Staphylococcus aureus [6], 200 µg/mL (≈ 63.8 µM); in the assay with Staphylococcus aureus [7], 21 µg/mL (≈ 6.7 µM).
